Data as given in patent US10238680B2, “D-amino acid phosphoramidate pronucleotides of halogeno pyrimidine compounds for liver disease” (priority 2013, dated 2019).

Assays:
HCV polymerase S282T = biological target: T1, HCV polymerase S282T (Hepatitis C virus genotype 1b, UniProt Q9WMX2, S2701T); assay: HCV polymerase enzyme assay, S282T; type: biochemical
T1 construct: approximately 65 kDa HCV genotype 1b NS5B protein were used to generate recombinant HCV polymerases (with a deletion of the 21 carboxy terminal amino acids); made in house

[1] = biological target: T2, wild-type HCV genotype 1b NS5B polymerase (Hepatitis C virus genotype 1b, UniProt Q9WMX2); assay: HCV polymerase enzyme assay, wild-type; type: biochemical
T2 construct: approximately 65 kDa HCV genotype 1b NS5B protein were used to generate recombinant HCV polymerases (with a deletion of the 21 carboxy terminal amino acids); made in house
Description: Test compounds in the form of nucleoside triphosphates were examined for inhibitory activity against purified HCV polymerase in a standard assay. Bacterial expression constructs encoding the approximately 65 kDa HCV genotype 1b NS5B protein were used to generate recombinant HCV polymerases (with a deletion of the 21 carboxy terminal amino acids). The wild-type genotype 1b protein was expressed and purified for use in the enzymatic activity assay.
The enzymatic activity assay measured the inhibitory effect of increasing concentrations of test compound on the incorporation of α-[^33P]-labeled nucleotide into trichloroacetic acid-precipitable material. Recombinant polymerase and synthetic RNA template were combined in reaction buffer containing three unlabeled ribonucleoside triphosphates, one α-[^33P]-labeled ribonucleosidee triphosphate and eight concentrations of test compound in three-fold dilutions. Reactions were incubated for two hours at 30° C.
Reactions were terminated by the addition of ice-cold trichloroacetic acid and sodium pyrophosphate to promote precipitation of newly-synthesized ribonucleic acid. Precipitable material from the reactions was collected by filtration onto 96-well filter plates, washed extensively with water, and quantified by liquid scintillation.
The inhibitory activity of test compounds was determined by fitting results to dose-response curves using XLfit software.

Molecule `C[C@@]1(F)[C@H](O)[C@@H](COP(=O)(O)OP(=O)(O)OP(=O)(O)O)O[C@H]1n1cc(F)c(=O)[nH]c1=O` [Compound 304] has an IC50 (HCV polymerase S282T) of 1000 to 10000 nM and an IC50 [1] of under 250 nM.

`C[C@@]1(Cl)[C@H](O)[C@@H](COP(=O)(O)OP(=O)(O)OP(=O)(O)O)O[C@H]1n1cc(F)c(=O)[nH]c1=O` [Compound 301] showed an IC50 [1] of 250 to 1000 nM.

With `C[C@@]1(O)[C@H](O)[C@@H](COP(=O)(O)OP(=O)(O)OP(=O)(O)O)O[C@H]1n1cc(F)c(N)nc1=O` [Compound 302] the IC50 [1] was under 250 nM.

Molecule `C[C@@]1(Cl)[C@H](O)[C@@H](COP(=O)(O)OP(=O)(O)OP(=O)(O)O)O[C@H]1n1cc(F)c(N)nc1=O` [Compound 303] has an IC50 [1] of 250 to 1000 nM.
